Consider two substances from paper PMC12018770, “DEAD‐Box Helicase 6 Blockade in Brain‐Derived Aβ Oligomers From Alzheimer's Disease Patients Attenuates Neurotoxicity” (MedComm, 2025).

The subject of one experiment is GST‐DDX6. In words: GST pulldown with GST‐DDX6. The experiment is classed as binding. As to conditions: 150 µg GST‐DDX6, 300 µg recombinant Aβ oligomers or negative control protein, overnight; n = 3. The procedure:
We conducted a series of in vitro experiments to investigate the mechanism by which DDX6 blockade affects Aβ oligomer neurotoxicity.
In accordance with the protocol provided in the GST pulldown kit (#21516; Thermo Fisher Scientific), 150 µg of GST‐DDX6 protein were rotated with 50 µL of glutathione agarose resin at 4°C for 3 h. The resin was then incubated overnight with 300 µg of recombinant Aβ oligomers or a negative control protein, washed with pH 8.0 glutathione elution buffer, and validated by dot blotting.

In the next experiment the test system is Aβ fibrillar plaques. In words: ThT‐binding assay, fluorescence microscopy of fibrillar plaques. The following applies: DDX6 10 µM, Aβ42 20 µM, Aβ42 oligomers 5 µM; n = 3. The experiment is classed as biochemical.
The test system of experiment [1] is human‐derived Aβ oligomers. In words: Co-immunoprecipitation / Western blotting of protein-Aβ oligomer interaction in AD brain extracts. Type of experiment: binding. The following applies: IgG isotype control. From the text:
After rigorous data analysis with SAINTexpress, four proteins (DDX6, DSP, JUP, and HRNR) were identified as potential Aβ oligomer‐binding partners. To validate these findings, we selected DSP and DDX6 as positive controls for co‐IP analysis; tau proteins were used as negative controls. Input samples, IP, co‐IP extracts, and IgG controls were adjusted to ensure equal amounts of protein for comparison. […] The IP enrichment effect was substantial for Aβ oligomers, DDX6, DSP, and tau proteins. In the co‐IP extracts for DDX6 and DSP, Aβ oligomers were detected at approximately 55 and 30 kDa, respectively (indicated by “ [drawing 1] ”). […] Isotype control IgG was used to exclude nonspecific binding (Figure 2A).
A Co‐IP kit (Thermo Fisher Scientific; #26149, USA) was used for the assay. Antibodies (2 µg) were crosslinked to a reinforced AminoLink coupling resin (20 µL of beads) and immobilized on a Pierce spin column at room temperature. Protein extracts (1 mg) were added to the spin column and incubated overnight at 4°C with rotation. The spin column was then transferred to a new collection tube, and 60 µL of elution buffer (pH 2.8, containing tertiary amine) was added. The column was centrifuged, and the eluate was analyzed to detect the presence of the target protein.
Protein concentrations in the co‐IP extracts were measured using a bicinchoninic acid assay (#23225, Thermo Fisher Scientific, USA). For each sample, 20 µL of protein was loaded, with the following amounts of human‐derived Aβ oligomers (AD1–AD6) used: 1.8 µg, 2.0 µg, 1.9 µg, 1.6 µg, 2.0 µg, and 1.8 µg, respectively. Equivalent amounts of co‐IP extracts were loaded into the remaining lanes. A 5× loading buffer was added to the protein samples to achieve a final concentration of 1×, and the samples were incubated at 95°C for 5 min [44]. […]
B. The PVDF membrane was probed with the Aβ oligomer antibody (A11), indicating enrichment of Aβ oligomers (post-IP) with bands observed at 55 kDa and 30 kDa. Aβ oligomers were detected in the co-IP products of DDX6 (indicated by “✸”). […]
(A western blot detects proteins with antibodies after separation by electrophoresis.)

In a further experiment the test system is Aβ oligomers in AD brain. Briefly: IHC colocalization with Aβ oligomers in AD brain sections. Also on record: species or system human. The following applies: AD7–AD10, n = 4; fluorescence scan over 120 µm. The source says: To further validate the binding interactions between Aβ oligomers and the four proteins, we performed immunohistochemistry (IHC) on brain sections from four AD patients (AD7–AD10). We analyzed the colocalization of Aβ oligomers (red) with DDX6, JUP, HRNR, and DSP (all green), as well as 4',6‐diamidino‐2‐phenylindole (DAPI)‐stained nuclei (blue). […] We also performed fluorescence intensity scanning from left to right across stained brain tissue slices (120 µm). […] The combined results from co‐IP and IHC confirm that these four proteins can bind to Aβ oligomers.
Sections were dewaxed, subjected to antigen retrieval, and blocked. They were then incubated with primary antibody (1:500) overnight at 4°C, followed by secondary antibody (1:200). Nuclei were stained with DAPI (Beyotime; C1002, Shanghai, China) for 10 min in the dark.

The subject of experiment [2] is human‐derived Aβ oligomers. In words: AP-MS with SAINTexpress scoring of binding to human‐derived Aβ oligomers. The following applies: score 0 to 1; criteria SAINT score > 0.5 and fold change ≥ 2; AD1–AD6, n = 6. The source says:
Not all identified proteins bind to Aβ oligomers. Therefore, we used the SAINTexpress statistical method to screen for proteins most likely to interact with human‐derived Aβ oligomers. SAINTexpress assigns probability scores to factors interacting with target proteins, providing a value between 0 and 1, where higher scores indicate a greater likelihood of interaction with Aβ oligomers. Based on the analyzed results, we plotted the fold change on the x‐axis and SAINT scores on the y‐axis, with each point representing a protein. Proteins meeting the criteria of a SAINT score > 0.5 and fold change ≥ 2 were considered the most likely to bind Aβ oligomers (highlighted in red). Through rigorous analysis, we identified four proteins as binding partners (Figure 1C): DDX6 (SAINT score = 0.5783), DSP (SAINT score = 0.6608), JUP (SAINT score = 0.5846), and HRNR (SAINT score = 0.5246).
An aliquot of each peptide mixture was loaded onto a trap column (in‐house‐fabricated column packed with a reversed‐phase ReproSil‐Pur C18‐AQ resin, 150 µm × 15 cm, C18, 3 µm, 100 Å, Dr. Maisch GmbH, Germany) connected to an analytical column (EASY‐Spray column, […] × 75 µm ID, PepMap RSLC C18, 2 µm, 100 Å, Thermo Scientific, USA) using the autosampler of an EASY‐nLC 1200 HPLC system (Thermo Fisher Scientific). The peptides were eluted using a gradient (solvent A: 0.1% formic acid in water; solvent B: 80% acetonitrile/0.1% formic acid in water; Sigma, Germany) directly into a Q Exactive Hybrid Quadrupole‐Orbitrap mass spectrometer (Thermo Fisher Scientific). The gradient program was as follows: 4%–8% solvent B over 2 min, 8%–28% solvent B over 43 min, 28%–40% solvent B over 10 min, 40%–95% solvent B over 1 min, and 95% solvent B for 10 min. The following mass spectrometry parameters were used: spray voltage, 2.2 kV; capillary temperature, 270°C; MS resolution, 70,000 at 400 m/z; MS precursor m/z range, 300.0–1800.0 m/z; activation type, high‐energy collision dissociation; normalized collision energy, 28.0; activation time, […]; and data‐dependent MS/MS, top 20 most intense peptide ions selected based on the preview scan in the Orbitrap.
The raw MS files (Figure S5) were analyzed and searched against species‐specific protein databases using MaxQuant (v1.6.2.10). The following parameters were applied: maximum missed cleavages, 2; precursor ion mass tolerance, 20 ppm; and MS/MS tolerance, 20 ppm. Peptides and proteins were filtered to achieve a false discovery rate of < 1% using a target‐decoy database strategy, and only proteins with at least two unique peptides were reported. […] SAINT is a probabilistic method for scoring protein–protein interactions in AP‐MS experiments, enabling the identification of proteins most likely to interact with target proteins. […]

Entries after “also recorded” stand apart in the source; their conditions may differ.

Turning to “Aβ42 oligomers: oligomers prepared from Aβ42 peptide (Abcam #ab120301), PBS, 72 h at 4°C”, the “pulldown by GST‐DDX6” value with GST‐DDX6 is “successfully pulled down”.

As to DEAD‐box helicase 6 [DDX6], in the experiment on Aβ fibrillar plaques, the “fluorescence intensity by microscopy (in words)” value is “showed no effects on fluorescence intensity”. For the same substance, the “binding to Aβ oligomers by co‐IP” value in experiment [1] is “DDX6 and DSP were also detected in Aβ oligomer co‐IP extracts; also recorded: DDX6 was detected in the co-IP products of Aβ oligomers”. Moreover, the “colocalization with Aβ oligomers” value in the experiment on Aβ oligomers in AD brain is “strong colocalization”. The substance also came in with an SAINT score in experiment [2] of 0.5783.
